Numbers after ± are expanded uncertainties.
Legend:
[1] = Crystal; DTA
[2] = Molar enthalpy of transition or fusion; conditions: Crystal; DSC

SMILES: C[C@@H]1CC[C@H]2[C@@H](C)C(=O)O[C@@H]3O[C@@]4(C)CC[C@@H]1[C@]32OO4 [artemisinin]
- Triple point temperature [1]: 429.6 ± 1.1 K
- Molar enthalpy of transition or fusion [2]: 5.81 ± 0.225 kcal/mol

Source: the NIST ThermoML archive (doi:10.1021/je100125x)
